Data: ChEMBL document CHEMBL4418480, “Methods and compositions for modulating rho-mediated gene transcription” (2012)
Calls of active or inactive are those of the source. No cut-off for these calls is given here.

Experiments:
[1] = tested on: PC-3; experiment: Cytotoxicity against human PC3 cells assessed as inhibition of cell cell viability at 100 uM incubated for 19 hrs by WST1 based assay relative to control; assay type: functional; settings: for inhibition at 100 µM: PC-3, 19 h
[2] = tested on: PC-3; experiment: Cytotoxicity against human PC3 cells assessed as inhibition of cell cell viability at 10 uM incubated for 19 hrs by WST1 based assay relative to control; assay type: functional; settings: for inhibition at 10 µM: PC-3, 19 h
[3] = species: Homo sapiens; experiment: Inhibition of rho-mediated gene transcription in human PC3 cells transfected with Galpha12QL activator at 100 uM incubated for 19 hrs by SRE.L-firefly luciferase based dual luciferase reporter gene assay relative to control; assay type: cell-based
[4] = species: Homo sapiens; experiment: Inhibition of rho-mediated gene transcription in human PC3 cells transfected with Galpha12QL activator at 10 uM incubated for 19 hrs by SRE.L-firefly luciferase based dual luciferase reporter gene assay relative to control; assay type: cell-based
[5] = Inhibition of rho-mediated gene transcription in human PC3 cells transfected with Galpha12QL activator incubated for 19 hrs by SRE.L-firefly luciferase based dual luciferase reporter gene assay; assay type: cell-based; settings: PC-3, 19 h
[6] = tested on: SK-OV-3; experiment: Antiinvasive activity against human SKOV3 cells assessed as inhibition of LPA-stimulated cell invasion at 100 ng/ml by matrigel based assay; assay type: functional
[7] = Inhibition of nonspecific gene transcription in human PC3 cells transfected with Galpha12QL activator at 100 uM incubated for 19 hrs by PRL-TK luciferase based dual luciferase reporter gene assay; assay type: cell-based, PC-3
[8] = Inhibition of nonspecific gene transcription in human PC3 cells transfected with Galpha12QL activator at 10 uM incubated for 19 hrs by PRL-TK luciferase based dual luciferase reporter gene assay; assay type: cell-based, PC-3
[9] = tested on: PC-3; experiment: Antiproliferative activity against human PC3 cells assessed as inhibition of LPA-stimulated cell proliferation incubated for 27 hrs by BrdUrd incorporation assay; assay type: functional, cell-based
[10] = tested on: SK-MEL-28; experiment: Antiproliferative activity against human SK-MEL-28 cells assessed as inhibition of LPA-stimulated cell proliferation at 0.3 mmol/L and measured on day 8 by WST1 based assay; assay type: functional
[11] = tested on: SK-MEL-147; experiment: Antiproliferative activity against human SK-MEL-147 cells assessed as inhibition of LPA-stimulated cell proliferation at 0.3 mmol/L and measured on day 8 by WST1 based assay; assay type: functional
[12] = tested on: WI-38; experiment: Antiproliferative activity against human WI38 cells assessed as inhibition of LPA-stimulated cell proliferation at 0.3 mmol/L and measured on day 8 by WST1 based assay; settings: wi-38, 300 µM
[13] = species: Homo sapiens; experiment: Antiproliferative activity against human A375M2 cells assessed as inhibition of LPA-stimulated cell proliferation at 0.3 mmol/L and measured on day 8 by WST1 based assay; assay type: functional
[14] = tested on: PC-3; experiment: Antiinvasive activity against human PC3 cells assessed as inhibition of LPA-stimulated cell invasion at 3 umol/L by matrigel based assay; assay type: functional
[15] = tested on: A-375; experiment: Antiproliferative activity against human A375 cells assessed as inhibition of LPA-stimulated cell proliferation at 0.3 mmol/L and measured on day 8 by WST1 based assay; assay type: functional

| Structure (SMILES) | IC50 [5] [µM] | inhibition at 19 h, 100 µM [7] [%] | inhibition at 19 h, 10 µM [8] [%] | inhibition [3] | inhibition [4] | also measured |
| --- | --- | --- | --- | --- | --- | --- |
| CC(=O)O[C@H]1C(=O)[C@@]2(C)[C@H]([C@H](OC(=O)c3ccccc3)[C@]3(O)C[C@H](OC(=O)[C@H](O)[C@@H](NC(=O)c4ccccc4)c4ccccc4)C(C)=C1C3(C)C)[C@]1(OC(C)=O)CO[C@@H]1C[C@@H]2O |  |  |  |  |  | inhibition [6]: Active |
| O=C(CCNC(=O)c1cc(C(F)(F)F)cc(C(F)(F)F)c1)Nc1ccc(Cl)cc1 | 25 to 38 | 15 to 22 |  | 64 to 66% | 38 to 44% | inhibition at 100 µM [1]: 6 to 10% |
| CN(CCNC(=O)c1cc(C(F)(F)F)cc(C(F)(F)F)c1)C(=O)c1ccc(Cl)cc1 | > 1000 | 10 | 0 | 25% | 20% | inhibition at 100 µM [1]: 0%; inhibition at 10 µM [2]: 0% |
| O=C(Nc1ccccc1C(=O)Nc1ccc(Cl)cc1)c1cc(C(F)(F)F)cc(C(F)(F)F)c1 |  |  | 0 |  |  |  |
| O=C(CONC(=O)c1cccc(C(F)(F)F)c1)Nc1ccc(Cl)cc1 | 27 | 19 | 5 | 86% | 25% |  |
| O=C(CONC(=O)c1ccc(C(F)(F)F)cc1)Nc1ccc(Cl)cc1 | 29 | 0 | 6 | 91% | 26% |  |
| O=C(CCCCNC(=O)c1cc(C(F)(F)F)cc(C(F)(F)F)c1)Nc1ccc(Cl)cc1 | > 100 | 10 | 0 | 12% | 0% | inhibition at 100 µM [1]: 0%; inhibition at 10 µM [2]: 0% |

Now from value to molecule, other results behind:

| IC50 [5] [µM] | inhibition at 19 h, 100 µM [7] [%] | inhibition at 19 h, 10 µM [8] [%] | Structure (SMILES) | inhibition [3] | inhibition [4] | also measured |
| --- | --- | --- | --- | --- | --- | --- |
| > 100 |  |  | O=C(CONC(=O)c1ccccc1)Nc1ccc(Cl)cc1 | inactive | inactive | inhibition [1]: inactive; inhibition [2]: inactive |
|  |  | 48 | CC(ONC(=O)c1cc(C(F)(F)F)cc(C(F)(F)F)c1)C(=O)Nc1ccc(Cl)cc1 (configuration not stated) |  | 74% | inhibition [9]: Active; inhibition [10]: Active; inhibition at 10 µM [2]: 44%; inhibition [11]: Active; Activity [12]: Non-Toxic; inhibition [13]: Active; inhibition [14]: Active; inhibition [15]: Active |
| 36 | 59 | 33 | O=C(CONC(=O)c1cc(C(F)(F)F)cc(C(F)(F)F)c1)Nc1ccccc1 | 65% | 13% |  |
|  |  | 0 | O=C(CC1CCCCN1C(=O)c1cc(C(F)(F)F)cc(C(F)(F)F)c1)Nc1ccc(Cl)cc1 (configuration not stated) |  |  |  |
